Test results reported in patent US12485161B2, “Compositions comprising sulforaphane or a sulforaphane precursor and a milk thistle extract or powder” (Nutramax Laboratories, Inc., priority 2012, dated 2025).

Columns and labels:
[1] = system: NAD(P)H:quinine oxidoreductase (NQO1); details: oral administration, mammary epithelium; cited from earlier work
heme oxygenase-1 (HO-1) = details: oral administration, mammary epithelium; cited from earlier work
myrosinase = assay: Conversion of glucoraphanin to sulforaphane in simulated intestinal fluid (Example 5); format: biochemical, broccoli; details: 38° C., 0.25 to 1.00 mmol/Liter ascorbic acid, FIG. 4
Method: Conversion of Glucoraphanin to Sulforaphane in the Presence of Simulated Intestinal Fluid. Simulated Intestinal Fluid (SW) powder, a commercially supplied concentrate closely approximating the human intestinal content in terms of composition, pH and ionic strength, was used. The experiment utilized a USP Dissolution Apparatus 2 (paddles), where into six dissolution vessels 500 mL of Simulated Intestinal Fluid was dispensed, along with 150 mg of freeze-dried broccoli sprout powder as a source of myrosinase. […] Aliquots were withdrawn every 15 minutes, and assayed for sulforaphane.

HepG2 cells = assay: Glutathione levels in HepG2 cells (o-phthalaldehyde fluorescence); format: cell-based, human
Method: The following study was conducted to determine the effect of the combination of sulforaphane and silibinin on glutathione levels. Glutathione plays an important role in the body, as it can serve as an antioxidant, detoxifier, and immunity enhancer. Decreased levels of glutathione can cause a patient to be susceptible to oxidative stress, illness, and cancer. Therefore, an increase in glutathione levels is a beneficial effect.
In the study, the human liver cancer cell line, HepG2 cells were treated with DMSO (vehicle control), sulforaphane (SFN), silibinin (Silib), or the combination of sulforaphane and silibinin, for 24 hours. Cell lysates were collected and glutathione levels were measured using o-phthalaldehyde (OPT) as a fluorescent reagent. FIG. 5 and FIG. 6 show the results of the study.
In Part 1 of the study, the effect of 0.5 μM SFN was compared to various concentrations of silibinin and to the combination of 0.5 μM SFN and silibinin at various concentrations. […] An increase in glutathione levels is a beneficial effect. The results are depicted in FIG. 5.
In Part 2 of the study, the effect of 2 μM SFN was compared to various concentrations of silibinin and to the combination of 2 μM SFN and silibinin at various concentrations. […] An increase in glutathione levels is a beneficial effect to detoxify cells. The results are depicted in FIG. 6.

SMILES: C[S+]([O-])CCCC/C(=N\OS(=O)(=O)O)S[C@@H]1O[C@H](CO)[C@@H](O)[C@H](O)[C@H]1O (stereo partly drawn) [GR, 1-S-[(1E)-5-(methylsulfinyl)-N-(sulfonatooxy)pentanimidoyl]-1-thio-β-D-glucopyranose]
- Increase in NQO1 enzymatic activity [1]: 3 fold
- Elevated immunostaining of HO-1 enzyme (heme oxygenase-1 (HO-1)): 4 fold

SMILES: O=C1O[C@H]([C@@H](O)CO)C(O)=C1O [ascorbic acid]
- Yield of sulforaphane versus ascorbic acid concentration (myrosinase): direct correlation between larger yield of sulforaphane and higher concentrations of ascorbic acid

SMILES: C[S+]([O-])CCCCN=C=S (centres unmarked) [sulforaphane, 1-isothiocyanato-4-methylsulfinylbutane]
- Glutathione levels compared to DMSO (vehicle) control (HepG2 cells; Part 1, 24 hours, 0.5 μM SFN, 100, 200, 300 μM Silib, FIG. 5): remained the same
- Glutathione levels compared to the control (HepG2 cells; Part 2, 24 hours, 2 μM SFN, 100, 300 μM Silib, FIG. 6): remained the same
